In patent US9573954B2, “Pyrazolopyrimidine compounds” (University Health Network, priority 2012, dated 2017) one finds GI50 and IC50 data, which are given here for nine compounds.

As usually defined, the GI50 is the concentration at which growth is held to half of that of the control. What is called IC50 is the concentration needed to halve the response being measured.

Experiment [1] has as its system ovarian cancer cells (PA-1). Kind of experiment: Cancer cell line growth inhibition, Sulforhodamine B assay, PA-1. Format: cell-based. To be noted: 120 h; Table 2; PA-1, 5 days, SRB; read-out: Cancer Cell Line GI50 Range PA-1. Put shortly: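 PA-1 ovarian cancer cells seeded 24 h before compound, then exposed to final 10 nM to 50 μM in DMEM/10% FBS for 5 days. Cell mass measured by TCA fixation and sulforhodamine B staining, absorbance 570 nm; GI50 derived from growth inhibition relative to DMSO-treated cells.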
For orientation: The SRB assay estimates cell density from bound dye.

The test system of experiment [2] is breast cancer cells (MDA-MB-231). Kind of experiment: Cancer cell line growth inhibition, Sulforhodamine B assay, MDA-MB-231. It is filed as cell-based. Particulars: Homo sapiens, 120 h; Table 2; MDA-MB-231, 5 days, SRB; read-out: Cancer Cell Line GI50 Range MDA-MB-231. On the procedure:
Breast cancer cells (MDA-MB-231 and MDA-MB-468), colon cancer cells (HCT116) and ovarian cancer cells (PA-1 and OVCAR-3) were seeded (1000 to 4000 in 80 μl per well depending on the cell growth rate) into 96 well plates 24 hours before compound overlay. Compounds were prepared as 10 mM stock solutions in 100% DMSO which were diluted with DMEM (Dulbecco's Modified Eagle's Medium) cell growth Medium (Invitrogen, Burlington, ON, Canada) containing 10% FBS (Fetal Bovine Serum) to concentrations ranging from 50 nM to 250 μM. Aliquots (20 μl) from each concentration were overlaid to 80 μl of the pre-seeded cells in the 96 well plates to make final concentrations of 10 nM to 50 μM. The cells were cultured for 5 days before the Sulforhodamine B assay (SRB) was performed to determine the compound's cell growth inhibition activity.
Sulforhodamine B (purchased from Sigma, Oakville, ON, Canada) is a water-soluble dye that binds to the basic amino acids of the cellular proteins. Thus, colorimetric measurement of the bound dye provides an estimate of the total protein mass that is related to the cell number. the cells are fixed in situ by gently aspirating off the culture media and adding 50 μl ice cold 10% Trichloroacetic Acid (TCA) per well and incubate at 4° C. for 30-60 min, The plates are washed with H2O five times and allowed to air dry for 5 min. Addition of 50 μl 0.4% (w/v) SRB solution in 1% (v/v) acetic acid to each well and incubation for 30 min at RT completes the staining reaction. Following staining, plates are washed four times with 1% acetic acid to remove unbound dye and then allowed to air dry for 5 min. The stain is solubilized with 100 μl of 10 mM Tris pH 10.5 per well. Absorbance is read at 570 nm.
The percentage (%) of relative growth inhibition was calculated by comparing to DMSO treated only cells (100%). GI50's were determined for compounds with cytotoxic activity. The GI50 was calculated using GraphPad PRISM software (GraphPad Software, Inc., San Diego, Calif., USA).
In Table 2 below, GI50 value ranges for compound examples against breast cancer cell lines (MDA-MB-231), colon cancer cell lines (HCT116) and ovarian cancer cell lines (PA-1) are given.

Experiment [3] has as its system Ovarian 2393A tumor initiating cells. Kind of experiment: Tumor-initiating cell growth inhibition, Alamar Blue assay, ovarian TICs. Format: cell-based. Particulars: 144 h; Table 2; ovarian TICs, 6 days, Alamar Blue; read-out: Tumor Initiating Cell GI50 Range Ovarian 2393A. Put shortly:
(§1)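 Colon TICs (4,000/well, non-TC plates) and ovarian TICs (1,000/well, TC plates) kept in serum-free DMEM:F12 with B-27, heparin, bFGF and EGF. Compound added after 24 h at 0.1% DMSO, then 9 days (colon) or 6 days (ovarian) at 37° C. GI50 from Alamar Blue fluorescence (ex 544/em 590) after 4 h.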
A general note: The colour change of resazurin is a common sign of viable cells or microbes.

Experiment [4] has as its system colon cancer cells (HCT116). The experiment is described as follows: Cancer cell line growth inhibition, Sulforhodamine B assay, HCT116. It is filed as cell-based. To be noted: Homo sapiens, HCT-116, 120 h, Table 2; HCT116, 5 days, SRB; read-out: Cancer Cell Line GI50 Range HCT116. A digest of the protocol:
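HCT116 cells, 1000–4000 per well, seeded 24 h ahead, then treated 5 days with compound at 10 nM to 50 μM final in DMEM with 10% FBS. Growth measured by sulforhodamine B staining after TCA fixation, A570; GI50 from inhibition relative to DMSO-only cells.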

Experiment [5] concerns Colon 12 tumor initiating cells. The experiment is described as follows: Tumor-initiating cell growth inhibition, Alamar Blue assay, colon TICs. It is filed as cell-based. Particulars: 216 h; Table 2; colon TICs, 9 days, Alamar Blue; read-out: Tumor Initiating Cell GI50 Range Colon 12. Put shortly: as §1
A further experiment concerns the target T1, human TTK (Homo sapiens, UniProt P33981).
T1 construct: Active TTK was purchased from Invitrogen as an amino terminal GST fusion of full length human TTK; purchased Invitrogen
T1 sequence (P33981 1-857): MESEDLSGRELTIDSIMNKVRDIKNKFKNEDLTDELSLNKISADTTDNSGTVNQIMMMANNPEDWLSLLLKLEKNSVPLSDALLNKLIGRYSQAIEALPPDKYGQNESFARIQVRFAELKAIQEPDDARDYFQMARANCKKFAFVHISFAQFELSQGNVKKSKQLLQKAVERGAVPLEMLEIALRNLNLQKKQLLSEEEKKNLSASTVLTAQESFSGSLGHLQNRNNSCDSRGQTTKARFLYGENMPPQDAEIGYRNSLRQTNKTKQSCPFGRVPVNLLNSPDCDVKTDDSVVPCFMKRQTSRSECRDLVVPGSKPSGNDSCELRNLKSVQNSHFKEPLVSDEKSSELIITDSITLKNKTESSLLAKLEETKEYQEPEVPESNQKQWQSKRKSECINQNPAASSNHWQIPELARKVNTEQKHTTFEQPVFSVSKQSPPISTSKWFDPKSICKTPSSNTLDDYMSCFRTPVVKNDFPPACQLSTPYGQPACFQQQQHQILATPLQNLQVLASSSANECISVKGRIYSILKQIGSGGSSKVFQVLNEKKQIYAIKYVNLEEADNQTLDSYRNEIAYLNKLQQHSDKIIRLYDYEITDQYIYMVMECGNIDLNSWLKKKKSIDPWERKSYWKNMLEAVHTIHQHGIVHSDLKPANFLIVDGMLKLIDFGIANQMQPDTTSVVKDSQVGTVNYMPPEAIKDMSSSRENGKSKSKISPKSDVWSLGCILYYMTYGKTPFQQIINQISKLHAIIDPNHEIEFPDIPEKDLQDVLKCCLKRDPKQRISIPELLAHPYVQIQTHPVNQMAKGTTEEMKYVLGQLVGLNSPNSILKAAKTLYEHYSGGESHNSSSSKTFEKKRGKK
Kind of experiment: TTK inhibition assay (indirect ELISA). It is filed as biochemical. Particulars: Table 2; 16 μM ATP (asterisk); read-out: TTK IC50 Range. A digest of the protocol: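 Activity detected by indirect ELISA after compounds sat with full-length GST-TTK for 5 min prior to starting the reaction with ATP. IC50 came from a four-parameter logistic curve of % inhibition, calculated against background and uninhibited control wells.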
Background: An ELISA detects its analyte on a solid surface through an enzyme-linked reagent.

Take `COCCNc1cc(Oc2ccccc2)nc2c(-c3ccc(C(=O)NC4CC4)cc3)cnn12` [Example B2, N-cyclopropyl-4-(7-((2-methoxyethyl)amino)-5-phenoxypyrazolo[1,5-a]pyrimidin-3-yl)benzamide]: the GI50 in experiment [1] is 100 to 500 nM; in experiment [2], greater than 500 nM; in experiment [3] it was greater than 500 nM; in experiment [4] it was greater than 500 nM; in experiment [5], 100 to 500 nM. The IC50 at human TTK was less than 100 nM.
For `Cc1cc(-c2cnn3c(NCC4CCOCC4)cc(Oc4cccc(F)c4)nc23)ccc1C(=O)NC1CC1` [Example B12, N-cyclopropyl-4-(5-(3-fluorophenoxy)-7-(((tetrahydro-2H-pyran-4-yl)methyl)amino)pyrazolo[1,5-a]pyrimidin-3-yl)-2-methylbenzamide], the GI50 in experiment [1], in experiment [2], in experiment [3], in experiment [4] and in experiment [5] was no more than 100 nM in each case. Further, on human TTK, the IC50 was less than 100 nM.
Regarding `Cc1cc(-c2cnn3c(NCCN4CCOCC4)cc(Oc4ccccc4)nc23)ccc1C(=O)NC1CC1` [Example B5, N-cyclopropyl-2-methyl-4-(7-((2-morpholinoethyl)amino)-5-phenoxypyrazolo[1,5-a]pyrimidin-3-yl)benzamide], the GI50 in experiment [1], in experiment [2], in experiment [3], in experiment [4] and in experiment [5] was no more than 100 nM in each case. For the same compound, the IC50 at human TTK was less than 100 nM.
For the compound `Cc1cc(-c2cnn3c(NCC4CCOCC4)cc(Oc4cccnc4)nc23)ccc1C(=O)NC1CC1` [Example B9, N-cyclopropyl-2-methyl-4-(5-(pyridin-3-yloxy)-7-(((tetrahydro-2H-pyran-4-yl)methyl)amino)pyrazolo[1,5-a]pyrimidin-3-yl)benzamide], the 50% growth inhibitory concentration (GI50) in experiment [1], in experiment [2], in experiment [3], in experiment [4] and in experiment [5] was no more than 100 nM throughout. On human TTK, the IC50 is less than 100 nM.
Regarding `CCC(CO)Nc1cc(NCC2CCOCC2)n2ncc(-c3ccc(C(=O)NC4CC4)c(C)c3)c2n1` (stereo in doubt) [Example B29, (R)-N-cyclopropyl-4-(5-((1-hydroxybutan-2-yl)amino)-7-(((tetrahydro-2H-pyran-4-yl)methyl)amino)pyrazolo[1,5-a]pyrimidin-3-yl)-2-methylbenzamide], the GI50 in experiment [1] is 100 to 500 nM; in experiment [2], greater than 500 nM; in experiment [3] it was greater than 500 nM; in experiment [4], 100 to 500 nM; in experiment [5] it was 100 to 500 nM. Also, the IC50 on human TTK was less than 100 nM.
For the compound `Cc1cc(-c2cnn3c(NCCCN4CCOCC4)cc(Oc4ccccc4)nc23)ccc1C(=O)NC1CC1` [Example B19, N-cyclopropyl-2-methyl-4-(7-((3-morpholinopropyl)amino)-5-phenoxypyrazolo[1,5-a]pyrimidin-3-yl)benzamide], the GI50 in experiment [1] is no more than 100 nM; in experiment [2], 100 to 500 nM; in experiment [3] it was 100 to 500 nM; in experiment [4], 100 to 500 nM; in experiment [5], 100 to 500 nM. The IC50 at human TTK was less than 100 nM.
On to `Cc1cc(-c2cnn3c(NCC4CCOCC4)cc(Oc4ccccc4)nc23)ccc1C(=O)NC1CC1` [Example B1], for which the concentration for 50% growth inhibition (GI50) in experiment [1], in experiment [2], in experiment [3], in experiment [4] and in experiment [5] was no more than 100 nM in each case. In addition, the IC50 on human TTK was less than 100 nM.
`O=C(NC1CC1)c1ccc(-c2cnn3c(NCC4CCOCC4)cc(Oc4ccccc4)nc23)cc1` [Example B3, N-cyclopropyl-4-(5-phenoxy-7-(((tetrahydro-2H-pyran-4-yl)methyl)amino)pyrazolo[1,5-a]pyrimidin-3-yl)benzamide]: the GI50 in experiment [1] is no more than 100 nM; in experiment [2], 100 to 500 nM; in experiment [3] it was 100 to 500 nM; in experiment [4], no more than 100 nM; in experiment [5] it was 100 to 500 nM. In addition, the IC50 on human TTK was less than 100 nM.
As to `O=C(NC1CC1)c1ccc(-c2cnn3c(NCCN4CCOCC4)cc(Oc4ccccc4)nc23)cc1` [Example B6, N-cyclopropyl-4-(7-((2-morpholinoethyl)amino)-5-phenoxypyrazolo[1,5-a]pyrimidin-3-yl)benzamide], the GI50 is no more than 100 nM in experiment [1]; 100 to 500 nM in experiment [2]; 100 to 500 nM in experiment [3]; 100 to 500 nM in experiment [4]; 100 to 500 nM in experiment [5]. At human TTK, the IC50 was less than 100 nM.
